pIC50, pKd: −log10 of the molar value.
How the values were obtained:
[1] = AUClast in ICR mouse at 20 mg/kg, po; format: ADME, organism-based; details: in vivo
[2] = AUC (0 to infinity) in ICR mouse at 20 mg/kg, po; format: ADME, organism-based; details: in vivo
[3] = Cmax in ICR mouse at 20 mg/kg, po; format: ADME, organism-based; details: in vivo
[4] = Tmax in ICR mouse at 20 mg/kg, po; format: ADME, organism-based; details: in vivo
[5] = biological target: Replicase polyprotein 1ab (Severe acute respiratory syndrome coronavirus 2) (UniProt P0DTD1); details: dose 31.25-1000 nM, time 100.0 sec
[6] = biological target: T1, Replicase polyprotein 1ab (Severe acute respiratory syndrome coronavirus 2, UniProt P0DTD1)
[7] = Observed MRT (0 to infinity) in ICR mouse at 20 mg/kg, po; format: ADME, organism-based; details: in vivo
[8] = Half-life in ICR mouse at 20 mg/kg, po; format: ADME, organism-based; details: in vivo
[9] = biological target: T1, Replicase polyprotein 1ab; remark: listed apart in the source
[10] = biological target: Replicase polyprotein 1ab (Severe acute respiratory syndrome coronavirus 2) (UniProt P0DTD1); details: dose 31.25-1000 nM, time 100.0 sec; remark: listed apart in the source
[11] = Cytotoxicity against African green monkey Vero E6 cells incubated for 24 hrs by CCK8 assay; format: toxicity, cell-based, Vero C1008; details: chlorocebus sabaeus

Row | SMILES | pIC50 [9] | further results
1 | CNC(=O)c1cc(Br)cc([N+](=O)[O-])c1N[C@@H]1CCCC[C@@H]1NC(=O)c1cc(=O)[nH]c2c(F)cccc12 | 7.24 | AUC(0-t) [1]: 56.1 ng·h/mL; AUC(0-inf) [2]: 58.2 ng·h/mL; Cmax [3]: 63.6 ng/mL; Tmax [4]: 3 min; K [5]: 7.5 10^5/M/s; pKd [6]: 7.63; MRT inf [7]: 93.6 min; half-life [8]: 139 min; K [10]: 0.018 s⁻¹; CC50 at 24 h [11]: > 200000 nM
2 | O=C(NCCN1CCOCC1)C1CN(c2ccc(Cl)c(Cl)c2)CCN1C(=O)c1cc(=O)[nH]c2ccccc12 (configuration not stated) | 6.08 | –
3 | CNC(=O)c1cc(Br)cc([N+](=O)[O-])c1N[C@H]1CCC[C@H]1NC(=O)c1cc(=O)[nH]c2ccccc12 | 7.29 | –
4 | O=C(C1CN(c2ccc(Cl)c(Cl)c2)CCN1C(=O)c1cc(=O)[nH]c2ccccc12)N1CCOCC1 (configuration not stated) | 5.02 | –
5 | O=C(N[C@H]1CCC[C@H]1Nc1c(C(=O)N2CCOCC2)cc(Br)cc1[N+](=O)[O-])c1cc(=O)[nH]c2ccccc12 | 7.68 | –
6 | O=C(NCC1CCCCC1)C1CN(c2ccc(Cl)c(Cl)c2)CCN1C(=O)c1cc(=O)[nH]c2ccccc12 (configuration not stated) | 6.36 | –
7 | O=C(N[C@H]1CCC[C@H]1Nc1c(C(=O)N2CCOCC2)cc(C2CC2)cc1[N+](=O)[O-])c1cc(=O)[nH]c2ccccc12 | 7.63 | –
8 | CNC(=O)c1cc(Br)cc([N+](=O)[O-])c1NC1CCN(C(=O)c2cc(=O)[nH]c3ccccc23)C1 (configuration not stated) | 6.71 | –
9 | CN1CCN(C(=O)c2cc(C3CC3)cc([N+](=O)[O-])c2N[C@@H]2CCC[C@@H]2NC(=O)c2cc(=O)[nH]c3ccccc23)CC1 | 7.60 | –
10 | O=C(NCC1CCC1)C1CN(c2ccc(Cl)c(Cl)c2)CCN1C(=O)c1cc(=O)[nH]c2ccccc12 (configuration not stated) | 6.52 | –
11 | CN1CCN(C(=O)c2cc(Br)cc([N+](=O)[O-])c2N[C@@H]2CCC[C@@H]2NC(=O)c2cc(=O)[nH]c3ccccc23)CC1 | 7.64 | –
12 | O=C(NCCCN1CCOCC1)C1CN(c2ccc(Cl)c(Cl)c2)CCN1C(=O)c1cc(=O)[nH]c2ccccc12 (configuration not stated) | 5.87 | –
13 | O=C(NCCC1CC1)C1CN(c2ccc(Cl)c(Cl)c2)CCN1C(=O)c1cc(=O)[nH]c2ccccc12 (configuration not stated) | 6.28 | –
14 | O=C(C1CN(c2ccc(Cl)c(Cl)c2)CCN1C(=O)c1cc(=O)[nH]c2ccccc12)N1CCC2(CC1)COC2 (configuration not stated) | 5.65 | –
15 | O=C(NCC1CC1)C1CN(c2ccc(Cl)c(Cl)c2)CCN1C(=O)c1cc(=O)[nH]c2ccccc12 (configuration not stated) | 6.47 | –
16 | O=C(N[C@H]1CCCC[C@H]1Nc1c(C(=O)N2CCOCC2)cc(C2CC2)cc1[N+](=O)[O-])c1cc(=O)[nH]c2ccccc12 | 8.02 | CC50 at 24 h [11]: > 200000 nM
17 | O=C(NCCC(F)(F)F)C1CN(c2ccc(Cl)c(Cl)c2)CCN1C(=O)c1cc(=O)[nH]c2ccccc12 (configuration not stated) | 6.70 | CC50 at 24 h [11]: 50300 nM
18 | O=C(N[C@H]1CCC[C@H]1Nc1c(C(=O)N2CCOCC2)cc(C2CC2)cc1[N+](=O)[O-])c1cc(=O)[nH]c2c(F)cccc12 | 7.67 | –
19 | CN1CCN(C(=O)c2cc(Br)cc([N+](=O)[O-])c2N[C@@H]2CCC[C@@H]2NC(=O)c2cc(=O)[nH]c3c(F)cccc23)CC1 | 7.54 | –
20 | COc1ccc2[nH]c(=O)cc(C(=O)N[C@H]3CCCC[C@H]3Nc3c(C(=O)N4CCOCC4)cc(Br)cc3[N+](=O)[O-])c2c1 | 7.53 | –
21 | O=C(NCC1CCO1)C1CN(c2ccc(Cl)c(Cl)c2)CCN1C(=O)c1cc(=O)[nH]c2ccccc12 (configuration not stated) | 6.51 | –
22 | CN1CCN(C(=O)C2CN(c3ccc(Cl)c(Cl)c3)CCN2C(=O)c2cc(=O)[nH]c3ccccc23)CC1 (configuration not stated) | 5.88 | –
23 | O=C(NCC1CCCC1)C1CN(c2ccc(Cl)c(Cl)c2)CCN1C(=O)c1cc(=O)[nH]c2ccccc12 (configuration not stated) | 6.55 | –
24 | COc1ccc2[nH]c(=O)cc(C(=O)N[C@H]3CCCC[C@H]3Nc3c(C(=O)N4CCN(C)CC4)cc(Br)cc3[N+](=O)[O-])c2c1 | 7.74 | –
25 | O=C(N[C@H]1CCCC[C@H]1Nc1c(C(=O)N2CCOCC2)cc(C2CC2)cc1[N+](=O)[O-])c1cc(=O)[nH]c2c(F)cccc12 | 7.94 | –
26 | CNC(=O)c1cc(C2CC2)cc([N+](=O)[O-])c1N[C@@H]1CCCC[C@@H]1NC(=O)c1cc(=O)[nH]c2ccccc12 | 7.68 | CC50 at 24 h [11]: > 200000 nM
27 | CN(CC1COCCO1)C(=O)C1CN(c2ccc(Cl)c(Cl)c2)CCN1C(=O)c1cc(=O)[nH]c2ccccc12 (configuration not stated) | 5.58 | –
28 | COc1ccc2[nH]c(=O)cc(C(=O)N[C@H]3CCC[C@H]3Nc3c(C(=O)N4CCN(C)CC4)cc(C4CC4)cc3[N+](=O)[O-])c2c1 | 7.62 | –

Row | SMILES | pIC50 [9] | further results
29 | O=C(c1cc(=O)[nH]c2ccccc12)N1CCN(c2ccc(Cl)c(Cl)c2)CC1Cc1ccccc1 (configuration not stated) | < 4.70 | –
30 | O=C(NCCC(F)(F)F)[C@H]1CN(c2ccc(Cl)c(Cl)c2)CCN1C(=O)c1cc(=O)[nH]c2ccccc12 | 6.27 | –
31 | CNC(=O)c1cc(Br)cc([N+](=O)[O-])c1N[C@@H]1CCCC[C@@H]1NC(=O)c1cc(=O)[nH]c2ccccc12 | 7.39 | AUC(0-t) [1]: 23.6 ng·h/mL; AUC(0-inf) [2]: 29.9 ng·h/mL; Cmax [3]: 11.3 ng/mL; Tmax [4]: 15 min; K [5]: 2.1 10^5/M/s; pKd [6]: 8.05; MRT inf [7]: 305 min; half-life [8]: 231 min; K [10]: 0.019 s⁻¹; CC50 at 24 h [11]: > 200000 nM
32 | COc1ccc2[nH]c(=O)cc(C(=O)N[C@H]3CCCC[C@H]3Nc3c(C(=O)N4CCOCC4)cc(C4CC4)cc3[N+](=O)[O-])c2c1 | 7.97 | CC50 at 24 h [11]: > 200000 nM
33 | O=C(NCCC1CCCC1)C1CN(c2ccc(Cl)c(Cl)c2)CCN1C(=O)c1cc(=O)[nH]c2ccccc12 (configuration not stated) | 6.04 | –
34 | COc1ccc2[nH]c(=O)cc(C(=O)N[C@H]3CCC[C@H]3Nc3c(C(=O)N4CCOCC4)cc(C4CC4)cc3[N+](=O)[O-])c2c1 | 7.69 | –
35 | CC1(C)C2CN(C(=O)C3CN(c4ccc(Cl)c(Cl)c4)CCN3C(=O)c3cc(=O)[nH]c4ccccc34)CC21 (configuration not stated) | 5.35 | –
36 | O=C(C1CN(c2ccc(Cl)c(Cl)c2)CCN1C(=O)c1cc(=O)[nH]c2ccccc12)N1CC2(COC2)C1 (configuration not stated) | 5.68 | –
37 | O=C1CC2(CCN(C(=O)C3CN(c4ccc(Cl)c(Cl)c4)CCN3C(=O)c3cc(=O)[nH]c4ccccc34)CC2)C1 (configuration not stated) | 5.89 | –
38 | O=C(NCCC(F)(F)F)[C@@H]1CN(c2ccc(Cl)c(Cl)c2)CCN1C(=O)c1cc(=O)[nH]c2ccccc12 | 6.82 | –
39 | O=C(NCCC1CCOCC1)C1CN(c2ccc(Cl)c(Cl)c2)CCN1C(=O)c1cc(=O)[nH]c2ccccc12 (configuration not stated) | 5.94 | –
40 | O=C1CCN(C(=O)C2CN(c3ccc(Cl)c(Cl)c3)CCN2C(=O)c2cc(=O)[nH]c3ccccc23)CC1 (configuration not stated) | 5.48 | –
41 | O=C1CC2CN(C(=O)C3CN(c4ccc(Cl)c(Cl)c4)CCN3C(=O)c3cc(=O)[nH]c4ccccc34)CC2C1 (configuration not stated) | 5.73 | –
42 | CNC(=O)c1cccc([N+](=O)[O-])c1N[C@@H]1CCCC[C@@H]1NC(=O)c1cc(=O)[nH]c2ccccc12 | 5.91 | –
43 | O=C(NCCCC(F)(F)F)C1CN(c2ccc(Cl)c(Cl)c2)CCN1C(=O)c1cc(=O)[nH]c2ccccc12 (configuration not stated) | 6.70 | CC50 at 24 h [11]: 69400 nM
44 | O=C(N[C@H]1CCCC[C@H]1Nc1c(C(=O)N2CCOCC2)cc(Br)cc1[N+](=O)[O-])c1cc(=O)[nH]c2c(F)cccc12 | 7.57 | AUC(0-t) [1]: 21.2 ng·h/mL; AUC(0-inf) [2]: 21.6 ng·h/mL; Cmax [3]: 33.9 ng/mL; Tmax [4]: 15 min; K [5]: 5.4 10^5/M/s; pKd [6]: 7.72; MRT inf [7]: 39 min; half-life [8]: 48 min; K [10]: 0.01 s⁻¹; CC50 at 24 h [11]: > 200000 nM
45 | O=C(N[C@H]1CCC[C@H]1Nc1c(C(=O)N2CCOCC2)cc(Br)cc1[N+](=O)[O-])c1cc(=O)[nH]c2c(F)cccc12 | 7.44 | –
46 | CCCCNC(=O)C1CN(c2ccc(Cl)c(Cl)c2)CCN1C(=O)c1cc(=O)[nH]c2ccccc12 (configuration not stated) | 6.24 | –
47 | O=C(N[C@H]1CCCC[C@H]1Nc1c(C(=O)N2CCOCC2)cc(Br)cc1[N+](=O)[O-])c1cc(=O)[nH]c2cc(F)ccc12 | 7.41 | –
48 | O=C(NCC1CCCO1)C1CN(c2ccc(Cl)c(Cl)c2)CCN1C(=O)c1cc(=O)[nH]c2ccccc12 (configuration not stated) | 6.46 | –
49 | O=C(c1cc(=O)[nH]c2ccccc12)N1CCN(c2ccc(Cl)c(Cl)c2)C[C@@H]1CC1CCCCC1 | < 4.70 | –
50 | O=C(c1cc(=O)[nH]c2ccccc12)N1CCC(Nc2ccc(Cl)c(Cl)c2)C1 (configuration not stated) | 5.08 | –
51 | O=C(N[C@@H]1CCC[C@@H]1Nc1ccc(Cl)c(Cl)c1)c1cc(=O)[nH]c2ccccc12 | < 5.00 | –
52 | O=C(N[C@H]1CCCC[C@H]1Nc1c(C(=O)N2CCOCC2)cc(Br)cc1[N+](=O)[O-])c1cc(=O)[nH]c2ccccc12 | 7.49 | CC50 at 24 h [11]: > 200000 nM
53 | CN1CCN(C(=O)c2cc(C3CC3)cc([N+](=O)[O-])c2N[C@@H]2CCC[C@@H]2NC(=O)c2cc(=O)[nH]c3c(F)cccc23)CC1 | 7.55 | –
54 | CNC(=O)c1cc(Br)cc([N+](=O)[O-])c1N[C@@H]1CCCC[C@@H]1NC(=O)c1cc(=O)[nH]c2cc(F)ccc12 | 6.98 | –
55 | CNC(=O)c1cc(Br)cc([N+](=O)[O-])c1N[C@@H]1CCCC[C@@H]1NC(=O)c1cc(=O)[nH]c2ccc(F)cc12 | 7.24 | CC50 at 24 h [11]: > 200000 nM
